The assay concerns the target OTU domain-containing protein 3 (Homo sapiens) (UniProt Q5T2D3). Briefly: Validation of screening hits, potency titration, in vitro enzymatic, OTU domain-containing protein 3 DUB inhibitors (AID 1645868). Conditions: purified OTUD3, ubiquitin-rhodamine cleavage fluorescence, 2 h.

Molecules are shown by their SMILES. pIC50: −log10 of the molar value. Calls of active or inactive are those of the source.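 The calls were made as follows: active = maximal percent inhibition of the deubiquitinase OTUD3 of at least 30% across the tested doses; inactive = the rest.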

Chain of OTU domain-containing protein 3 (Homo sapiens) (Q5T2D3 whole entry, looked up, the tested form may be a part): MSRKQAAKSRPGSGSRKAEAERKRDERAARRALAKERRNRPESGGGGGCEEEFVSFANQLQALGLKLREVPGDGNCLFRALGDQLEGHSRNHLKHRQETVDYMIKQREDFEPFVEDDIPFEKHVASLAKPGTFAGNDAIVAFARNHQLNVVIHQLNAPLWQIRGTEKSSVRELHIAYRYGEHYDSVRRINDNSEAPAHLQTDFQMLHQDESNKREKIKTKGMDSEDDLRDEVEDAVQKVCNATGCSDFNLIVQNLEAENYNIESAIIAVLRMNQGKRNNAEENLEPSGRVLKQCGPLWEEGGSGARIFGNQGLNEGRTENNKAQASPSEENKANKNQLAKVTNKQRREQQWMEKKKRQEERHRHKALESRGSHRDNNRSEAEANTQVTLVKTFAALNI

For orientation: IC50 means the point on the concentration scale where inhibition reaches its midpoint. On to `O=C(Nc1ccccc1)c1nc(-c2cn(Cc3ccc(F)cc3)nn2)no1`, for which the IC50 is > 50 µM (inactive).

A word on the pIC50: it is −log10 of the IC50, conventionally taken in molar units. In the case of `O=C(Cn1c(=O)c2sccc2n(Cc2ccc([N+](=O)[O-])cc2)c1=O)NCCc1ccccc1`, the pIC50 was 4.65.

For the molecule `O=C(COC(=O)c1ccc(CN2CCCC2=O)cc1)c1ccc2c(c1)OCCO2`, the IC50 was > 50 µM (inactive).

Consider `Fc1cccc(-n2cc(-c3noc(-c4ccc[nH]4)n3)nn2)c1`, for which the IC50 is > 50 µM (inactive).

For the molecule `CCOc1ccccc1NC(=O)Cn1ccn2nc(-c3ccc(OC)cc3)cc2c1=O`, the IC50 was > 50 µM (inactive).

Take `O=c1c2ccccc2oc2nc(-c3cccs3)n(-c3ccccc3)c(=O)c12`: the pIC50 was 5.44.

Turning to `CCC(=O)Nc1ccc(-c2nc(Cn3cc(C)cn3)c(C)o2)cc1`, the IC50 is > 50 µM (inactive).

On to `N#Cc1ccc(COC(=O)c2ccc3ccccc3n2)cc1`, for which the IC50 is > 50 µM (inactive).

`O=C(CSc1ncnc2c1sc1cccc(F)c12)N1CCCCCC1`: the IC50 is > 50 µM (inactive).

On to `CC(C)NC(=O)[C@H](Cc1ccccc1)NC(=O)N1CCn2c1nc1ccccc12`, for which the IC50 is > 50 µM (inactive).

`COc1ccccc1NC(=O)c1cc(-c2ccccn2)nc2ccccc12`: the pIC50 is 4.41.

As for `CCc1ccc2[nH]c(=O)c(CN(CCc3ccc(OC)c(OC)c3)C(=O)Nc3ccccc3)cc2c1`, the IC50 is > 50 µM (inactive).

For `O=C(NCCCN1CCc2ccccc2C1)c1cc2c(s1)CS(=O)(=O)C2`, the IC50 was > 50 µM (inactive).

With `COc1ccc(C)cc1NC(=O)COc1ccc2c(c1)OCO2`, the IC50 is > 50 µM (inactive).

On to `N#Cc1c(SCCO)nc(N2CCCC2)c2c1CCCC2`, for which the IC50 is > 50 µM (inactive).

As to `COc1cccc(-c2cc(=O)[nH]c(Nc3nc(C)c4ccccc4n3)n2)c1`, the IC50 is > 50 µM (inactive).

For `O=C1c2ccccc2-n2c1nc1ccccc1c2=O`, the IC50 is > 50 µM (inactive).

As to `Cc1sc(-c2cccnc2)nc1OC(=O)c1ccc(Cl)c(Cl)c1`, the IC50 is > 50 µM (inactive).

On to `C[C@@]12c3ccc4c(c3C(=O)c3occ(c31)C(O)C[C@H]2O)CCC4=O` (some centres not stated), for which the IC50 was > 50 µM (inactive).

Take `Nc1nonc1C(=O)NCCNCc1cccc(OCc2ccc(Cl)cc2)c1`: the IC50 was > 50 µM (inactive).

In the case of `CC1=C[C@@H](C)CC[C@H]2O[C@@H](C3=C(O)C(=O)C(C)=C4O[C@](O)(C=C43)[C@@H](C)C[C@H](C)C1)[C@H](C)[C@@H](O)[C@H]2C`, the pIC50 was 4.70.

For the molecule `CCOc1ccc(-c2ccc3nnc(SCC(=O)Nc4cccc(C(C)=O)c4)n3n2)cc1`, the IC50 was > 50 µM (inactive).

`O=C(Nc1cc(Cl)cc(Cl)c1)c1csnn1`: the pIC50 is 4.48.

Consider `CCC(CC)n1[nH]c(=O)c2c1NC(=O)CSC2c1ccc2c(c1)OCO2` (configuration not stated), for which the pIC50 is 4.72.

For `Cc1ccc(NC(=O)Cc2nnc3cc(-c4nc(C)no4)ccn23)cc1`, the pIC50 is 4.66.

Regarding `COc1ccc(NC(=O)c2nnn(-c3ccccc3F)c2C)cc1OC`, the IC50 was > 50 µM (inactive).

As to `CCn1cnc2c1c(=O)n(CC(=O)NCc1ccccc1Cl)c(=O)n2Cc1ccccc1`, the IC50 is > 50 µM (inactive).

On to `COc1ccc2nc(Nc3ncc4c(n3)CCCC4=O)nc(C)c2c1`, for which the IC50 is > 50 µM (inactive).

On to `Cc1ccc(CNC(=O)Cn2c(=O)n(-c3ccccc3)c3ncccc32)cc1`, for which the IC50 is > 50 µM (inactive).

In the case of `COc1ccc(CCNC(=O)CSc2cn(CCNC(=O)c3ccc(F)cc3)c3ccccc23)cc1OC`, the pIC50 is 4.42.

As to `CCOC(=O)c1cnc(C(F)(F)F)nc1Sc1n[nH]c(-c2cccs2)n1`, the IC50 is > 50 µM (inactive).

For `COc1ccccc1CC(=O)N(C)C(c1ccccc1)c1ccccc1`, the IC50 was > 50 µM (inactive).

With `CN1C(=O)[C@]23CC4=CC=C[C@H](O)[C@H]4N2C(=O)[C@@]1(CO)SS3`, the IC50 is > 50 µM (inactive).

For the molecule `Cc1ccc(NC(=O)/C=C/c2cccc(C(F)(F)F)c2)c(O)c1`, the pIC50 is 4.52.

`CCn1c(=N)n(CCOc2ccc(F)cc2)c2ccccc21`: the IC50 was > 50 µM (inactive).

As for `CCn1cc(NC(=O)CN2CCC3(CC=CCOC3)CC2)c(C)n1`, the IC50 was > 50 µM (inactive).

Turning to `Cc1ccc(CNC(=O)c2cnc3ccccc3n2)cc1`, the IC50 is > 50 µM (inactive).

As to `O=C(NCc1ccc(CN2CCCC2)cc1)c1cc2ccccc2[nH]c1=O`, the IC50 is > 50 µM (inactive).

For `O=C(NC1CCS(=O)(=O)C1)c1ccc(N2CCC(Cc3ccccc3)CC2)nn1` (configuration not stated), the IC50 is > 50 µM (inactive).

As for `Cc1ccc(Cl)cc1NC(=O)c1cc(-c2ccccn2)n[nH]1`, the pIC50 was 4.61.

`COc1ccccc1S(=O)(=O)N1CC[C@@H]2CN(C)[C@@H]2C1`: the IC50 was > 50 µM (inactive).

Regarding `COCCn1ccc2nc(C)c(C(=O)Nc3ccc4c(c3)OCCO4)cc2c1=O`, the IC50 was > 50 µM (inactive).

Regarding `O=C1N(Cc2ccc(F)cc2)CCN1c1ccc2c(c1)CCC2`, the IC50 is > 50 µM (inactive).

`Cc1cnc(CN2CCCC(c3ccc4cn[nH]c4n3)C2)cn1` (configuration not stated): the IC50 is > 50 µM (inactive).

As for `Cc1cc(=O)oc2cc(OCC(=O)Nc3cc(Cl)ccc3N3CCOCC3)ccc12`, the IC50 was > 50 µM (inactive).

As for `O=C(Nc1cc(F)ccc1F)c1ccn(COc2ccc(F)c(Cl)c2)n1`, the IC50 was > 50 µM (inactive).

For the molecule `COC1=CC(=O)c2c(O)c(C)c(CC(C)=O)c(O)c2C1=O`, the IC50 is > 50 µM (inactive).

With `COCC(C)Nc1ncc(-c2cnccn2)c(-c2ccc(C)s2)n1` (configuration not stated), the IC50 is > 50 µM (inactive).

On to `Cc1cc(C)cc(-n2cnc3cc(C(=O)NCCC4=CCCCC4)ccc32)c1`, for which the IC50 was > 50 µM (inactive).

With `COc1ccc2ncc3c(-c4ccc(C)cc4)nn(-c4ccc(F)cc4)c3c2c1`, the IC50 was > 50 µM (inactive).

Take `COc1ccc(O)c(C(=O)OCc2cc(=O)oc3ccc4ccccc4c23)c1`: the IC50 is > 50 µM (inactive).

Turning to `COc1ccc2cc1Oc1cc(ccc1OC)C(O)C13SSC4(C(=O)N1C)C(O)C1=COC=CC(OC2=O)C1N4C3=O` (configuration not stated), the IC50 is > 50 µM (inactive).

For `CCc1ccc(-c2nc(SCC(=O)Nc3ccc4[nH]c(=O)[nH]c4c3)n[nH]2)cc1`, the pIC50 is 4.39.

Regarding `COc1cccc2cccc(O)c12`, the IC50 was > 50 µM (inactive).

For the molecule `Cc1ccc2nc(CNC(=O)c3ccccc3-c3nc(-c4ccc(F)cc4)no3)[nH]c2c1`, the pIC50 was 4.40.

With `COCCNC(=O)c1ccc(-c2ccc(N3CCCCC3)nc2)cc1`, the pIC50 was 4.60.

In the case of `COc1cccc(CNC(=O)C2=Cc3cccc(OC)c3OC2)c1`, the IC50 is > 50 µM (inactive).

As to `COc1ccccc1CNC(=O)CCCCn1c(=O)c2ccccc2n(Cc2ccccc2C#N)c1=O`, the pIC50 was 4.77.

Take `O=c1sc2ccccc2c(=O)n1Cc1cccc(C(F)(F)F)c1`: the IC50 is > 50 µM (inactive).

Consider `Cc1cc(/C=C2/C(=N)N3C(c4ccccc4)=CSC3=NC2=O)c(C)n1-c1ccc(F)cc1`, for which the IC50 is > 50 µM (inactive).

On to `COc1cccc(C(=O)Oc2ccc3c(=O)c(-c4ccc(OC)c(OC)c4)coc3c2)c1`, for which the IC50 was > 50 µM (inactive).

In the case of `c1ccc2c(c1)CCc1c-2nc2ccccc2c1N1CCOCC1`, the IC50 is > 50 µM (inactive).
